Test results reported in patent US10759822B2 (priority 2016, dated 2020).

Key:
[1] = tested on: 030418-induced acute death in mice; parameters: species or system KM mice; conditions: mouse, in vivo
[2] = tested on: 030418-induced respiratory depression rats; conditions: rat, in vivo
[3] = mouse, in vivo
[4] = mouse, in vivo; remark: listed apart in the source
[5] = tested on: field EPSP in the rat dentate gyrus; conditions: in vivo, ip; cited from earlier work
[6] = tested on: hyperactivity induced by d-amphetamine; conditions: in vivo, ip, 2 mg/kg; cited from earlier work

Row | Compound | survival rate of mice [1] | molar dose for the same anti-lethal effect, relative to Compound a ([1]; sc, 15 mg/kg) | antagonism toward the decreased respiratory rate and ventilation caused by 030418 [2] | effect on respiratory rate and ventilation compared with Compound a [2] | (AUC0-t)prodrug group/(AUC0-t)prototype drug group [3] | (AUC0-t)prodrug/(AUC0-t)prototype drug [4] | Death rate [1] [%] | increase in the amplitude of the field EPSP [5] [%] | inhibition of hyperactivity [6] [%]
1 | C/C(=C(\CCOC(=O)CCCC(=O)OC1CCC(N(C)C(=O)c2ccc3nonc3c2)CC1)SSCCC(C)C)N(C)C=O (stereo not drawn) [Compound 15, Pentanedioic acid anti-4-[(benzo[c][1,2,5]oxadiazole-5-carbonyl)-methyl-amino]-cyclohexyl ester 3-isopentyldisulfanyl-4-(formyl-methyl-amino)-pent-3-enyl ester] | increase the survival rate of mice in a dose-dependent manner | one-eighth | dose-dependent antagonism | same effect as Compound a (10 mg/kg) | 0.41 | 2.23 |  |  | 
2 | CN(C(=O)c1ccc2nonc2c1)C1CCC(O)CC1 (stereo not drawn) [Compound a, N-(anti-4-hydroxycyclohexyl)-N-methylbenzo[c][1,2,5]oxadiazol-5-yl-carboxamide, reference compound] |  |  |  |  |  |  | 20 | 21 | 100
